The text below walks through data of patent US12122778B2, “Activating pyruvate kinase R” (Novo Nordisk Health Care AG, priority 2018, dated 2024).

SMILES strings stand for the structures.

One assay deals with PKR(R510Q) (Homo sapiens, UniProt P30613, R510Q). Nature of the assay: Luminescence Biochemical Assay (Kinase Glo Plus), PKR R510Q mutant. To be noted: without FBP; for activation at 1.54 µM: 1.54 μM compound, read-out: AC50 LUM KGP woFBP % Fold@1.54 μM mean; for AC50: read-out: AC50 LUM KGP woFBP AC50 μM gmean; for Emax: read-out: AC50 LUM KGP woFBP MAX % FOLD mean. As for the experimental part: (§1) In some embodiments, a PKR Activating Compound can have: (1) an AC50 value of less than 0.1 μM (e.g., compounds with AC50 values of “+++” in Table 13), 0.1-1.0 μM (e.g., compounds with AC50 values of “++” in Table 13), or 1.01-40 μM (e.g., compounds with AC50 values of “+” in Table 13); (2) a MAX % Fold of 75%-250%, 250-500%, or 75%-500%; and/or (3) a % Fold@1.54 μM of 75%-250%, 250-500%, or 75%-500%. In some embodiments, a PKR Activating Compound has (1) an AC50 value of less than 1.0 μM; (2) a MAX % Fold of 75%-500%; and/or (3) a % Fold@1.54 μM of 75%-500%.
Chain of PKR(R510Q) (P30613 whole entry R510Q): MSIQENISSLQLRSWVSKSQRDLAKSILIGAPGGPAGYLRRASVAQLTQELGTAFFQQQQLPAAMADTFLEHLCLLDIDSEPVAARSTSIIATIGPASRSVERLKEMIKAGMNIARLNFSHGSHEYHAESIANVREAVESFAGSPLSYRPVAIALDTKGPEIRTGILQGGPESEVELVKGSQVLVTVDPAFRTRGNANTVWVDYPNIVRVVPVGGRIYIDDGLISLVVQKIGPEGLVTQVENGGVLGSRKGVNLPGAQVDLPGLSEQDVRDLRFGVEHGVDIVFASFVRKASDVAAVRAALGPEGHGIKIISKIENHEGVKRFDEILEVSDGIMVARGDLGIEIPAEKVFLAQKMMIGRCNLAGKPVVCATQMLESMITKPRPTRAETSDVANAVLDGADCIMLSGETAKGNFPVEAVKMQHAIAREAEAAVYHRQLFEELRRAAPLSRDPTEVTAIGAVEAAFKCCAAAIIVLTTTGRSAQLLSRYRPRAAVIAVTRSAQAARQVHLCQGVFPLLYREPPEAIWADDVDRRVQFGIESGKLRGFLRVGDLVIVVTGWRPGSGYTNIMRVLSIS
(§2) The phosphorylation of Adenosine-5′-diphosphate (ADP) by various mutants of PKR was determined by the Kinase Glo Plus Assay (Promega) in the presence or absence of FBP [D-Fructose-1,6-diphosphate; BOC Sciences, CAS: 81028-91-3] as follows. Unless otherwise indicated, all reagents were purchased from Sigma-Aldrich. All reagents were prepared in buffer containing 50 mM Tris-HCl, 100 mM KCl, 5 mM MgCl2, and 0.01% Triton X100, 0.03% BSA, and 1 mM DTT. Enzyme and PEP [Phospho(enol) pyruvic acid] were added at 2× to all wells of an assay-ready plate containing serial dilutions of test compounds or DMSO vehicle. Final enzyme concentrations for PKR(wt), PKR(R510Q), and PKR(G332S) were 0.8 nM, 0.8 nM, and 10 nM respectively. Final PEP concentration was 100 μM. The Enzyme/PEP mixture was incubated with compounds for 30 minutes at RT before the assay was initiated with the addition of 2×ADP [Adenosine-5′-diphosphate] and KinaseGloPlus. Final concentration of ADP was 100 μM. […] For assays containing FBP, that reagent is added at 30 μM upon reaction initiation. Reactions were allowed to progress for 45 minutes at RT until luminescence was recorded by the BMG PHERAstar FS Multilabel Reader. All compounds were tested in triplicate at concentrations ranging from 42.5 μM to 2.2 nM in 0.83% DMSO.
(§3) Luminescence values were converted to % Fold increase by normalizing to the average of the DMSO control and multiplying by 100. Max, min, slope and AC50 were determined by the standard four parameter fit algorithm of ActivityBase XE Runner. Compounds were evaluated with three parameters—AC50, MAX % Fold, and % Fold@1.54 μM (FIG. 1). The AC50 value for a compound is the concentration (μM) corresponding to the midway between the maximum and minimum values of the four parameter logistic curve fit (i.e., at which the % fold increase along the four parameter logistic curve fit is halfway between MAX % Fold and MIN % Fold (% Fold Midpoint)), MAX % Fold is the highest fold increase observed at any concentration of compound, and % Fold@1.54 μM is the fold increase at a compound concentration of 1.54 μM. The parameter % Fold@1.54 μM was selected to capture elements of both the AC50 and MAX % Fold and to provide a ranking based on both potency and effect. The compound concentration of 1.54 μM was chosen as one that can optimally differentiate the set of compounds based on the range of activities observed.
(§4) As set forth in Table 13 below, AC50 values (columns A, D, G) are defined as follows: ≤0.1 μM (+++); >0.1 μM and ≤1.0 μM (++); >1.0 μM and ≤40 μM (+); >40 μM (0). Max % FOLD values (columns B, E, H) are defined as follows: ≤75% (+); >75% and ≤250% (++); >250% and ≤500% (+++). % Fold@1.54 μM values (columns C, F, J) are defined as follows: ≤75% (+); >75% and ≤250% (++); >250% and ≤50000 (+++).
(Kinase-Glo reads ATP consumption through a luciferase reaction.)

The target in another assay is PKR(G332S) (Homo sapiens, UniProt P30613, G332S). The experiment in a line: Luminescence Biochemical Assay (Kinase Glo Plus), PKR G332S mutant. To be noted: with FBP; for activation at 1.54 µM: 1.54 μM compound, read-out: AC50 LUM KGP FBP % Fold@1.54 μM mean; for AC50: read-out: AC50 LUM KGP FBP AC50 μM gmean (column A); for Emax: read-out: AC50 LUM KGP FBP MAX % FOLD mean. Here is the method:
as §1, §2, §3, §4

In another assay the target is PKR(wt) (Homo sapiens, UniProt P30613). The experiment in a line: Luminescence Biochemical Assay (Kinase Glo Plus), wild type PKR. To be noted: without FBP; for activation at 1.54 µM: 1.54 μM compound, read-out: AC50 LUM KGP woFBP % Fold@1.54 μM mean; for AC50: read-out: AC50 LUM KGP woFBP AC50 μM gmean; for Emax: read-out: AC50 LUM KGP woFBP MAX % FOLD mean.
Chain of PKR(wt) (P30613 whole entry): as the sequence (P30613 whole entry R510Q) above, with Q510R counted along it

Chain of PKR(G332S) (P30613 whole entry G332S): as the sequence (P30613 whole entry R510Q) above, with G332S, Q510R counted along it

For `O=C(NCc1cnco1)N1CC2=C(C1)CN(S(=O)(=O)c1ccc(F)cc1)C2` [Example 5-1, 5-(4-Fluorophenylsulfonyl)-N-(oxazol-5-ylmethyl)-3,4,5,6-tetrahydropyrrolo[3,4-c]pyrrole-2(1H)-carboxamide], on PKR(R510Q), the activation at 1.54 µM was in the range of 75 to 250%, the AC50 (commonly the concentration at which the activity in the assay is half-maximal) is 1 to 40 µM and the Emax is 75 to 250%. Moreover, at PKR(G332S), the activation at 1.54 µM is 75 to 250%, the AC50 is 0.1 to 1 µM and the Emax is 75 to 250%.
Take `Cc1noc(C)c1S(=O)(=O)N1CC2=C(CN(C(=O)[C@H](O)c3ccccc3)C2)C1` [Example 18-44, (2R)-1-{5-[(dimethyl-1,2-oxazol-4-yl)sulfonyl]-1H,2H,3H,4H,5H,6H-pyrrolo[3,4-c]pyrrol-2-yl}-2-hydroxy-2-phenylethan-1-one]: on PKR(R510Q), the activation at 1.54 µM fell in the range of 75 to 250%, the AC50 was in the range of 1 to 40 µM and the Emax was in the range of 75 to 250%. Besides, at PKR(G332S), the activation at 1.54 µM lay in the range of 75 to 250%, the AC50 is 1 to 40 µM and the Emax was in the range of 75 to 250%.
Take `Cc1nc(S(=O)(=O)N2CC3=C(CN(C(=O)[C@H](C)c4ccccc4)C3)C2)cn1C` [Example 19-3, (2R)-1-{5-[(1,2-dimethyl-1H-imidazol-4-yl)sulfonyl]-1H,2H,3H,4H,5H,6H-pyrrolo[3,4-c]pyrrol-2-yl}-2-phenylpropan-1-one]: at PKR(R510Q), the activation at 1.54 µM was in the range of 75 to 250%, the half-maximal activity concentration (AC50) lay within 1 to 40 µM and the Emax lay within 75 to 250%. For the same compound, on PKR(G332S), the activation at 1.54 µM lay in the range of 75 to 250%, the AC50 lay in the range of 0.1 to 1 µM and the Emax lay within 75 to 250%.
Turning to `Cc1nc(S(=O)(=O)N2CC3=C(CN(C(=O)C(C)n4cnc5ccccc54)C3)C2)cn1C` (stereo not drawn) [Example 19-9, 2-(1H-Benzo[d]imidazol-1-yl)-1-(5-((1,2-dimethyl-1H-imidazol-4-yl)sulfonyl)-3,4,5,6-tetrahydropyrrolo[3,4-c]pyrrol-2(1H)-yl)propan-1-one], on PKR(R510Q), the activation at 1.54 µM was in the range of 75 to 250%, the AC50 lay in the range of 1 to 40 µM and the Emax is 75 to 250%. At PKR(G332S), the activation at 1.54 µM fell in the range of 75 to 250%, the AC50 was in the range of 0.1 to 1 µM and the Emax fell in the range of 75 to 250%.
For `COc1ccc(CNC(=O)N2CC3=C(C2)CN(S(=O)(=O)c2ccc(F)cc2)C3)cc1` [Example 20-3], at PKR(R510Q), the activation at 1.54 µM fell in the range of 250 to 50000%, the AC50 lay within 0.1 to 1 µM and the Emax was 250 to 500%. On PKR(G332S), the activation at 1.54 µM was 75 to 250%, the AC50 is at most 0.1 µM and the Emax was 75 to 250%.
With `Cc1cc(CNC(=O)N2CC3=C(C2)CN(S(=O)(=O)c2ccc4ncsc4c2)C3)on1` [Example 21-9, 5-(1,3-Benzothiazole-6-sulfonyl)-N-[(3-methyl-1,2-oxazol-5-yl)methyl]-1H,2H,3H,4H,5H,6H-pyrrolo[3,4-c]pyrrole-2-carboxamide], at PKR(R510Q), the activation at 1.54 µM is 75 to 250%, the AC50 lay within 0.1 to 1 µM and the Emax lay within 250 to 500%. Besides, on PKR(wt), the activation at 1.54 µM is 75 to 250%, the AC50 was 0.1 to 1 µM and the Emax is 250 to 500%.
As for `CC(C)Oc1cccc(CNC(=O)N2CC3=C(C2)CN(S(=O)(=O)c2ccc4ncsc4c2)C3)c1` [Example 21-21, 5-(1,3-Benzothiazole-6-sulfonyl)-N-{[3-(propan-2-yloxy)phenyl]methyl}-1H,2H,3H,4H,5H,6H-pyrrolo[3,4-c]pyrrole-2-carboxamide], on PKR(R510Q), the activation at 1.54 µM fell in the range of 75 to 250%, the AC50 lay in the range of 1 to 40 µM and the Emax was 75 to 250%. Further, on PKR(wt), the activation at 1.54 µM was 75 to 250%, the AC50 was in the range of 0.1 to 1 µM and the Emax lay within 75 to 250%.
Consider `O=C(NCc1ccno1)N1CC2=C(C1)CN(S(=O)(=O)c1ccc3ncsc3c1)C2` [Example 21-27, 5-(1,3-Benzothiazole-6-sulfonyl)-N-(1,2-oxazol-5-ylmethyl)-1H,2H,3H,4H,5H,6H-pyrrolo[3,4-c]pyrrole-2-carboxamide], for which, on PKR(R510Q), the activation at 1.54 µM was in the range of 75 to 250%, the AC50 lay in the range of 1 to 40 µM and the Emax lay in the range of 75 to 250%. In addition, on PKR(wt), the activation at 1.54 µM lay within 75 to 250%, the concentration at half-maximal activity (AC50) is 0.1 to 1 µM and the Emax is 75 to 250%.
Turning to `O=C(NCc1nccs1)N1CC2=C(C1)CN(S(=O)(=O)c1ccc3ncsc3c1)C2` [Example 21-28, 5-(1,3-Benzothiazole-6-sulfonyl)-N-(1,3-thiazol-2-ylmethyl)-1H,2H,3H,4H,5H,6H-pyrrolo[3,4-c]pyrrole-2-carboxamide], at PKR(R510Q), the activation at 1.54 µM is 75 to 250%, the AC50 was 0.1 to 1 µM and the Emax was 75 to 250%. In addition, on PKR(wt), the activation at 1.54 µM lay in the range of 75 to 250%, the AC50 is 0.1 to 1 µM and the Emax was 250 to 500%.
Consider `O=C(NCc1ncco1)N1CC2=C(C1)CN(S(=O)(=O)c1ccc3ncsc3c1)C2` [Example 21-29, 5-(1,3-Benzothiazole-6-sulfonyl)-N-(1,3-oxazol-2-ylmethyl)-1H,2H,3H,4H,5H,6H-pyrrolo[3,4-c]pyrrole-2-carboxamide], for which, on PKR(R510Q), the activation at 1.54 µM was in the range of 75 to 250%, the AC50 lay in the range of 0.1 to 1 µM and the Emax lay within 75 to 250%. Moreover, at PKR(wt), the activation at 1.54 µM lay in the range of 250 to 50000%, the AC50 was in the range of 0.1 to 1 µM and the Emax was in the range of 250 to 500%.
Take `O=C(NCc1cnccn1)N1CC2=C(C1)CN(S(=O)(=O)c1ccc3ncsc3c1)C2` [Example 21-30, 5-(1,3-Benzothiazole-6-sulfonyl)-N-(pyrazin-2-ylmethyl)-1H,2H,3H,4H,5H,6H-pyrrolo[3,4-c]pyrrole-2-carboxamide]: at PKR(R510Q), the activation at 1.54 µM was 75 to 250%, the AC50 was 1 to 40 µM and the Emax was in the range of 250 to 500%. At PKR(wt), the activation at 1.54 µM was in the range of 250 to 50000%, the concentration at half-maximal activity (AC50) lay within 0.1 to 1 µM and the Emax was 250 to 500%.
For `CC(C)Oc1ccc(CNC(=O)N2CC3=C(C2)CN(S(=O)(=O)c2ccc4ncsc4c2)C3)cc1` [Example 21-31, 5-(1,3-Benzothiazole-6-sulfonyl)-N-{[4-(propan-2-yloxy)phenyl]methyl}-1H,2H,3H,4H,5H,6H-pyrrolo[3,4-c]pyrrole-2-carboxamide], on PKR(R510Q), the activation at 1.54 µM is 75 to 250%, the AC50 was 1 to 40 µM and the Emax lay within 75 to 250%. For the same compound, on PKR(wt), the activation at 1.54 µM lay in the range of 75 to 250%, the AC50 was 1 to 40 µM and the Emax was 75 to 250%.
With `Cc1cccc(CNC(=O)N2CC3=C(C2)CN(S(=O)(=O)c2ccc4ncsc4c2)C3)n1` [Example 21-32, 5-(1,3-Benzothiazole-6-sulfonyl)-N-[(6-methylpyridin-2-yl)methyl]-1H,2H,3H,4H,5H,6H-pyrrolo[3,4-c]pyrrole-2-carboxamide], at PKR(R510Q), the activation at 1.54 µM fell in the range of 250 to 50000%, the AC50 is 0.1 to 1 µM and the Emax fell in the range of 250 to 500%. Moreover, on PKR(wt), the activation at 1.54 µM fell in the range of 250 to 50000%, the AC50 fell in the range of 0.1 to 1 µM and the Emax fell in the range of 250 to 500%.
